Literature values, collected in patent US11219614B2, “Combination cancer therapy with pentaaza macrocyclic ring complex and ascorbate compound” (Galera Labs, LLC, priority 2016, dated 2022).

Experiments:
[1] = system: collagen-induced arthritis; details: rat; cited from earlier work
[2] = system: lethal total body irradiation; details: adult mice; cited from earlier work
[3] = system: experimental model of colitis; details: rats; cited from earlier work
[4] = system: inflammation; details: rat model; cited from earlier work
[5] = system: radiation-induced oral mucositis; details: hamster, acute radiation-induced oral mucositis; cited from earlier work
[6] = pH 7, absence of catalytic metals; cited from earlier work

SMILES	joint disease [1]	radiation damage [2]	injury to the colon [3]	inflammation [4]	radiation damage [5]	stability of solution [6]
[Cl-].[Cl-].[Mn+2].c1cc2nc(c1)CN[C@@H]1CCCC[C@H]1NCCN[C@@H]1CCCC[C@H]1NC2 [GC4403]	prevent joint disease	attenuate the radiation damage	very significantly reduce the injury to the colon	inhibit inflammation	attenuate the radiation damage	
O=C1O[C@H]([C@@H](O)CO)C(O)=C1O [ascorbic acid, (5R)-[(1S)-1,2-Dihydroxyethyl]-3,4-dihydroxyfuran-2(5H)-one]						stable at pH 7
